Measurements published in patent publication US7102000B2, “Heterocyclic amide derivatives for the treatment of diabetes and other diseases” (Incyte San Diego Inc., priority 2002, dated 2006).

How the values were obtained:
[1] = tested on: diet-induced hypercholesterolemic Sprague Dawley rats; assay: Diet-induced hypercholesterolemia in wild type Sprague Dawley rats (total, HDL, LDL cholesterol); assay type: in vivo, rat; details: Sprague Dawley rats on atherogenic diet, oral once daily, day 5, FIGS. 5a–c
Excerpt: Experimental Procedure: Six week-old male Sprague Dawley rats (obtained from Harlan of San Diego, Calif.) were housed in a fixed 12—12-hr artificial light-dark cycle, and maintained on a high cholesterol atherogenic diet (Paigen's Diet, obtained from Research Diet Inc. of New Brounswick, N.J.) was provided ad libitum. Animals were allowed six days to acclimate in this experimental environment prior to the initiation of the study.
Prior to initiation of treatment, the animals were bled from the tail vein (100–200 μL of whole blood) and serum levels of cholesterol were measured in duplicate (Cholesterol Infinity kits; Sigma, St. Louis, Mo.). Based on these initial measures, animals were sorted into groups with approximately the same average total cholesterol levels. Once sorted, the animals were housed three per cage and maintained on Paigen's diet ad libitum. All compounds to be tested were suspended in sesame oil and administered in a final volume of 3 ml/kg. Drug is administered by oral gavage once daily at the beginning of the artificial light cycle. To obtain a base line for lipid measurement, a control group maintained on standart rodent diet is included (lean control).
Treatment Group A (n=6/group): (See Results in FIG. 5a) • 1) Lean control (Sesame Oil) • 2) Control • 3) Compound 2 (0.3 mg/kg) • 4) Compound 2 (1 mg/kg) • 5) Compound 2 (3 mg/kg)
Treatment Group B (n=6/group): (See Results in FIG. 5b) • 1) Lean control (Sesame Oil) • 2) Control • 3) Compound 6 (3 mg/kg)
Treatment Group C (n=6/group): (See Results in FIG. 5c) • 1) Lean control (10% HPβCD) • 2) Control • 3) Compound 25 (1 mg/kg) • 4) Compound 25 (3 mg/kg) • 5) Compound 25 (10 mg/kg) • 6) Compound 25 (15 mg/kg) • The compounds were dissolved in a 10% hydroxy propyl beta cyclodextrin solution, and administered to animals in a volume of 10 ml/kg/dose.
To monitor the effect of the tested compounds, animals were bled from the tail vein at the end of the dark cycle on days 0 (for sorting) and day 5 of the treatment period. Fed serum cholesterol levels were measured in duplicate. The blood is kept at room temperature to allow coagulation, after which the serum is separated and assayed for total cholesterol (Infinity reagent, Sigma), HDL cholesterol (using HDL precipitating reagent and infinity reagent, Sigma) and LDL cholesterol (EZLDL kit, Sigma). As shown in FIGS. 5a–c, all compounds tested show significant reduction in total and LDL cholesterol levels and a significant increase in HDL cholesterol levels compared to high fat fed control animals.

[2] = tested on: THP-1 cells differentiated into macrophages; assay: Cholesterol efflux assay from macrophage foam cells; assay type: cell-based; details: 1 μM, 24 hr, with 10 μg/ml ApoA-I, compared to non treated cells, FIG. 4
Procedure: Cholesterol efflux from macrophage foam cells was assayed as described by Sparrow. et al, J. Biol. Chem.,2002, 277, 10021–10027, which is encorporated herein in its entirety by this reference. THP-1 cells obtained from ATCC (Manassas, VI), were cultured in RPMI medium (Sigma, St-Louis, Mo.), containing 10% fetal calf serum (Sigma, St-Louis, Mo.), 0.05 μM 2-mercaptoethanol, 1 mM sodium pyruvate, 2 mM L-glutamine, 100 units/ml penicillin, […] streptomycin and 0.25 μg/ml amphotericin B obtained from Sigma (St-Louis, Mo.). The THP-1 cells were differentiated into macrophages in 24 well tissue culture dishes at a density of 0.5 million cells/well by incubation in the same medium plus 100 nM tetradecanoyl phorbol acetate (Sigma, St-Louis, Mo.), for 3 days.
After differentiation into macrophages, the cells were tested for cholesterol efflux as induced by compound 2 of the invention. Cells were labeled by incubation for 24 hr in fresh growth medium containing [3 H]-cholesterol (10 μCi/ml) (PerkinElmer, Boston, Mass.), and 50 μg/ml acetylated-LDL (Frederick, Md.) and 1% Fetal bovine serum (Sigma, St-Louis, Mo.). […] Media were briefly centrifuged to remove non-adherent cells, and then aliquots of both the supernatant and the dissolved cells were counted by liquid scintillation spectrometry to determine radioactivity.
Cholesterol efflux is expressed as a percentage, calculated as […]

KKA^y mice = assay: Oral treatment of type 2 diabetes in KKA^y mice (serum glucose, triglyceride, cholesterol); assay type: in vivo, mouse; details: KKA^y mice, oral once daily, vs control mice, FIGS. 2a–d
Excerpt: The procedure for this in-vivo assay for anti-diabetes activity was described in detail by Iwatsuka, et al. (1970 General Survey of Diabetic Features of Yellow KK Mice. Endocrinol. Japon. 17: 23–35, incorporated herein in its entirety by reference).
Experimental Procedures: Six to eight week-old male KKA^y mice (obtained from Jackson Labs of Bar Harbord, Me.) were housed in a fixed 12–12-hr artificial light-dark cycle, and maintained on a standard rodent diet provided ad libitum. Animals were allowed two days to acclimate in this experimental environment prior to the initiation of the study.
Prior to initiation of treatment with the compounds of the invention, the animals were bled from the tail vein (100–200 μL of whole blood) and serum levels of glucose and triglycerides were measured in duplicate (Trinder kits; Sigma, St. Louis, Mo.). Based on these initial measures, animals were sorted into groups with approximately the same average serum glucose levels. Once sorted, the animals were housed one per cage and provided rodent diet ad libitum. Unless otherwise indicated, compounds were suspended in sesame oil, and administered by oral gavage once daily to animals in a volume of 3 ml/kg/dose.
Treatment Group A (n=5/group): (See Results in FIG. 2a) • 1) KKA^y vehicle control (sesame oil) • 2) Compound 1 (3 mg/kg) • 3) Compound 1 (10 mg/kg) • 4) Compound 2 (3 mg/kg) • 5) Compound 2 (10 mg/kg)
Treatment Group B (n=6/group): (See Results in FIG. 2b) • 1) KKA^y vehicle control (sesame oil) • 2) Compound 11 (15 mg/kg)
Treatment Group C (n=6/group): (See Results in FIG. 2c) • 1) KKA^y vehicle control (sesame oil) • 2) Compound 13 (15 mg/kg)
Treatment Group D (n=6/group): (See Results in FIG. 2d) • 1) KKA^y vehicle control (CMC) • 2) Compound 25 (3 mg/kg, CMC) Compound 25 was suspended in a solution of carboxymethyl cellulose (CMC; 1% carboxy methyl cellulose in H2O, with 10% polyethelene glycol 400), and administered to animals in a volume of 5 ml/kg/dose.
Treatment Group E (n=5/group): (See Results in FIG. 2e) • 1) KKA^y vehicle control (10% HPβCD) • 2) Compound 25 (1 mg/kg) • 3) Compound 25 (3 mg/kg) • 4) Compound 25 (10 mg/kg) Compound 25 was dissolved in a 10% hydroxy propyl beta cyclodextrin solution, and administered to animals in a volume of 10 ml/kg/dose.
Serum glucose, triglyceride and/or cholesterol levels were measured in duplicate. The blood is kept at room temperature to allow coagulation, after which the serum is separated and assayed for glucose, triglyceride and/or cholesterol levels. As shown in FIGS. 2a–2d all of the compounds tested reduced serum glucose and triglyceride levels, some with doses as low as 3 mg/kg when administered once a day.

[3] = Oral bioavailability, single dose pharmacokinetic study in rats (plasma concentration by HPLC); assay type: in vivo, Sprague Dawley rats; details: rat, single oral dose 10 mg/kg in 10% HPβCD, 0.5–26 hours, FIG. 7
Excerpt: Oral bioavailability is an important pharmaceutical characteristic for a compound to advance through drug development. A basic assessment of the oral bioavailability of a compound can be done in a single dose pharmacokinetic study in wild type rats.
Six to eight week-old male Sprague Dawley rats (Harlan) were housed in a fixed 12–12- hr artificial light-dark cycle, and maintained on a standard rodent diet provided ad libitum. Animals were allowed two days to acclimate in this experimental environment prior to the initiation of the study. Compounds 24 and 25 were dissolved in a 10% hydroxypropyl beta cyclodextrin solution and administered by oral gavage in a final dose of 10 mg/kg in a volume of 5 ml/kg. Treatment groups were divided as follows:
Treatment groups(n=3/group): • 1) Compound 24 (10 mg/kg) • 2) Compound 25 (10 mg/kg)
Each animal received a single treatment, after which, the animal was bled from the tail vein at the following time points: 0.5, 1, 2, 4, 6, 9, 12, and 26 hours after treatment. To measure the concentration of each compound in plasma, blood samples were collected in heparin-coated tubes, and the plasma was isolated and analyzed by HPLC.

[4] = tested on: Mouse pre-adipocyte 3T3-L1 cells; assay: Differentiation of 3T3-L1 pre-adipocytes in an in vitro assay (lipid content); assay type: cell-based; details: 0.1 μM, 7 days; taken as reference
Procedure: The compounds of the invention have been screened in an in-vitro adipocyte differentiation assay, as described in Example 26. Mouse pre-adipocyte 3T3-L1 cells were treated with compounds at concentrations less than or equal to 10^−6 M for 7 days.
The compounds can be considered active for adipocyte differentiation if the lipid accumulation induced is at least about 20%, or at least about 40% of the lipid accumulation induced by 5-[3-(3,5,5,8,8-Pentamethyl-5,6,7,8-tetrahydro-naphthalen-2-yl)-4-trifluoromethoxy-benzylidene]-thiazolidine-2,4-dione when it is applied to control cultures of mouse preadipocyte 3T3-L1 cells at a concentration of about 1×10^−7 M.
The following protocol was used to determine adipocyte differentiation activity of the compounds of the invention: Mouse pre-adipocyte 3T3-L1 cells obtained from ATCC (American Tissue Culture Collection, MD) were initially grown in DME Dulbecco's modified Eagle's medium containing 4500 mg/L glucose; 4 mM L-glutamine; 10 U/ml Pen-G; 10 mcg/ml Streptomycin and 10% Bovine Calf Serum (CS) at 37° C. and 10% CO2. Cells were plated in 96 well plates at a density of approximately 3,000 cells/well and grown to confluence (when cells use 100% of the available space on the well) in the same medium. […] The cellular lysates were analyzed for their lipid content using the Triglyceride-GPO Trinder reagent from Sigma.

[5] = tested on: Mouse pre-adipocyte 3T3-L1 cells; details: stated as previously shown; cited from earlier work

SMILES | HDL cholesterol [1] | LDL cholesterol [1] | total cholesterol [1] | cholesterol efflux [2] | serum glucose level (KKA^y mice) | serum triglyceride level (KKA^y mice) | concentration of compound in plasma [3] | differentiation of 3T3-L1 cells (lipid content), standard for differentiation activity [4] | inducer of adipocyte differentiation [5]
CCN1C(=O)CC(C)(C)c2cc(C)c(-c3cc(/C=C4\SC(=O)NC4=O)ccc3OC(F)(F)F)cc21 [Compound 2, 5-[3-(1-Ethyl-4,4,6-trimethyl-2-oxo-1,2,3,4-tetrahydro-quinolin-7-yl)-4-trifluoromethoxy-benzylidene]-thiazolidine-2,4-dione] | increasing | decrease | decrease | increases | decrease | decrease |  |  | 
Cc1cc2c(cc1-c1cc(/C=C3\SC(=O)NC3=O)ccc1OC(F)(F)F)C(C)(C)CCC2(C)C [Compound 24, 5-[3-(3,5,5,8,8-Pentamethyl-5,6,7,8-tetrahydro-naphthalen-2-yl)-4-trifluoromethoxy-benzylidene]-thiazolidine-2,4-dione] |  |  |  |  |  |  | only detected as being present at near the limit of detection | 100% | potent inducer of adipocyte differentiation
